Results reported in US20230085307A1, “PYRIDAZINONE COMPOUND AND HERBICIDE” (NISSAN CHEMICAL CORPORATION, priority 2019, published 2023).

Legend:
barnyard grass [1] = experiment: Test Example 4: herbicidal effect by soil treatment (Table 19, symbol H); format: in vivo, barnyard grass (Echinochloa crus-galli); settings: amount of applied herbicide 320 g/ha
How it was run: (§1)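 Emulsion of test compound, water-diluted to predetermined amount, sprayed on soil after sowing (seed depth ~1.5 cm, sterilized diluvial soil). Greenhouse, 25–30° C. Effect graded at three weeks post-spray.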

oval-leafed pondweed = experiment: Test Example 1: herbicidal activity, application before weed generation under submerged conditions (Table 16, symbol C); format: in vivo, oval-leafed pondweed (Monochoria vaginalis); settings: amount of applied herbicide 320 g/ha
How it was run: (§2)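 Alluvial soil was flooded to 4 cm depth, weed seeds were sown mixed and 2.5-leaf rice seedlings were transplanted. On sowing day, the compound's emulsion, diluted in water to a set dose, was applied to the water surface. Plants grew at 25–30 °C and were scored 0–5 after three weeks.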

Japanese bulrush = experiment: Test Example 1: herbicidal activity, application before weed generation under submerged conditions (Table 16, symbol B); format: in vivo, Japanese bulrush (Schoenoplectus juncoides); settings: amount of applied herbicide 320 g/ha
How it was run: as §2

green foxtail [2] = experiment: Test Example 5: herbicidal effect by foliage application, plastic box (Table 20, symbol G); format: in vivo, green foxtail (Setaria viridis); settings: amount of applied herbicide 320 g/ha; foliage application after 14-day growth; evaluated three weeks after application
How it was run: (§3)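 Post-emergence foliar test in sterilized diluvial soil. Compound applied as water-diluted emulsion at a predetermined rate to 14-day-old plants; evaluation at three weeks.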

windgrass [3] = experiment: Test Example 5: herbicidal effect by foliage application, plastic box (Table 20, symbol L); format: in vivo, windgrass (Apera spica-venti); settings: amount of applied herbicide 320 g/ha; foliage application after 14-day growth; evaluated three weeks after application
How it was run: as §3

windgrass [4] = experiment: Test Example 4: herbicidal effect by soil treatment (Table 19, symbol L); format: in vivo, windgrass (Apera spica-venti); settings: amount of applied herbicide 320 g/ha
How it was run: as §1

rice flat sedge = experiment: Test Example 3: herbicidal effect by foliage application, Wagner pot (Table 18, symbol E); format: in vivo, rice flat sedge (Cyperus iria); settings: 320 g/ha
How it was run: (§4)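 Plants were sown in alluvial soil held under 0.1–0.5 cm standing water and grown 14 days in a greenhouse at 25–30 °C. An emulsifiable formulation, water-diluted to the set dose, was then sprayed onto the foliage, and effects were scored three weeks later using previously defined criteria.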

late watergrass = experiment: Test Example 1: herbicidal activity, application before weed generation under submerged conditions (Table 16, symbol A); format: in vivo, late watergrass (Echinochloa oryzicola); settings: amount of applied herbicide 320 g/ha
How it was run: as §2

velvetleaf [5] = experiment: Test Example 5: herbicidal effect by foliage application, plastic box (Table 20, symbol M); format: in vivo, velvetleaf (Abutilon theophrasti); settings: amount of applied herbicide 320 g/ha; foliage application after 14-day growth; evaluated three weeks after application
How it was run: as §3

wild oat [6] = experiment: Test Example 4: herbicidal effect by soil treatment (Table 19, symbol I); format: in vivo, wild oat (Avena fatua); settings: amount of applied herbicide 320 g/ha
How it was run: as §1

Italian ryegrass [7] = experiment: Test Example 5: herbicidal effect by foliage application, plastic box (Table 20, symbol K); format: in vivo, Italian ryegrass (Lolium multiflorum); settings: amount of applied herbicide 320 g/ha; foliage application after 14-day growth; evaluated three weeks after application
How it was run: as §3

barnyard grass [8] = experiment: Test Example 5: herbicidal effect by foliage application, plastic box (Table 20, symbol H); format: in vivo, barnyard grass (Echinochloa crus-galli); settings: amount of applied herbicide 320 g/ha; foliage application after 14-day growth; evaluated three weeks after application
How it was run: as §3

southern crabgrass [9] = experiment: Test Example 4: herbicidal effect by soil treatment (Table 19, symbol F); format: in vivo, southern crabgrass (Digitaria ciliaris); settings: amount of applied herbicide 320 g/ha
How it was run: as §1

blackgrass [10] = experiment: Test Example 5: herbicidal effect by foliage application, plastic box (Table 20, symbol J); format: in vivo, blackgrass (Alopecurus myosuroides); settings: amount of applied herbicide 320 g/ha; foliage application after 14-day growth; evaluated three weeks after application
How it was run: as §3

southern crabgrass [11] = experiment: Test Example 5: herbicidal effect by foliage application, plastic box (Table 20, symbol F); format: in vivo, southern crabgrass (Digitaria ciliaris); settings: amount of applied herbicide 320 g/ha; foliage application after 14-day growth; evaluated three weeks after application
How it was run: as §3

lambsquarters [12] = experiment: Test Example 4: herbicidal effect by soil treatment (Table 19, symbol O); format: in vivo, lambsquarters (Chenopodium album); settings: amount of applied herbicide 320 g/ha
How it was run: as §1

velvetleaf [13] = experiment: Test Example 4: herbicidal effect by soil treatment (Table 19, symbol M); format: in vivo, velvetleaf (Abutilon theophrasti); settings: amount of applied herbicide 320 g/ha
How it was run: as §1

wild oat [14] = experiment: Test Example 5: herbicidal effect by foliage application, plastic box (Table 20, symbol I); format: in vivo, wild oat (Avena fatua); settings: amount of applied herbicide 320 g/ha; foliage application after 14-day growth; evaluated three weeks after application
How it was run: as §3

green foxtail [15] = experiment: Test Example 4: herbicidal effect by soil treatment (Table 19, symbol G); format: in vivo, green foxtail (Setaria viridis); settings: amount of applied herbicide 320 g/ha
How it was run: as §1

redroot pigweed [16] = experiment: Test Example 5: herbicidal effect by foliage application, plastic box (Table 20, symbol N); format: in vivo, redroot pigweed (Amaranthus retroflexus); settings: amount of applied herbicide 320 g/ha; foliage application after 14-day growth; evaluated three weeks after application
How it was run: as §3

Italian ryegrass [17] = experiment: Test Example 4: herbicidal effect by soil treatment (Table 19, symbol K); format: in vivo, Italian ryegrass (Lolium multiflorum); settings: amount of applied herbicide 320 g/ha
How it was run: as §1

chickweed [18] = experiment: Test Example 5: herbicidal effect by foliage application, plastic box (Table 20, symbol P); format: in vivo, common chickweed (Stellaria media); settings: amount of applied herbicide 320 g/ha; foliage application after 14-day growth; evaluated three weeks after application
How it was run: as §3

redroot pigweed [19] = experiment: Test Example 4: herbicidal effect by soil treatment (Table 19, symbol N); format: in vivo, redroot pigweed (Amaranthus retroflexus); settings: amount of applied herbicide 320 g/ha
How it was run: as §1

barnyard grass [20] = experiment: Test Example 3: herbicidal effect by foliage application, Wagner pot (Table 18, symbol H); format: in vivo, barnyard grass (Echinochloa crus-galli); settings: 320 g/ha
How it was run: as §4

persian speedwell = experiment: Test Example 5: herbicidal effect by foliage application, plastic box (Table 20, symbol R); format: in vivo, Persian speedwell (Veronica persica); settings: amount of applied herbicide 320 g/ha; foliage application after 14-day growth; evaluated three weeks after application
How it was run: as §3

blackgrass [21] = experiment: Test Example 4: herbicidal effect by soil treatment (Table 19, symbol J); format: in vivo, blackgrass (Alopecurus myosuroides); settings: amount of applied herbicide 320 g/ha
How it was run: as §1

chickweed [22] = experiment: Test Example 4: herbicidal effect by soil treatment (Table 19, symbol P); format: in vivo, common chickweed (Stellaria media); settings: amount of applied herbicide 320 g/ha
How it was run: as §1

Chinese sprangletop = experiment: Test Example 3: herbicidal effect by foliage application, Wagner pot (Table 18, symbol D); format: in vivo, chinese sprangletop (Leptochloa chinensis); settings: 320 g/ha
How it was run: as §4

lambsquarters [23] = experiment: Test Example 5: herbicidal effect by foliage application, plastic box (Table 20, symbol O); format: in vivo, lambsquarters (Chenopodium album); settings: amount of applied herbicide 320 g/ha; foliage application after 14-day growth; evaluated three weeks after application
How it was run: as §3

false cleavers = experiment: Test Example 4: herbicidal effect by soil treatment (Table 19, symbol Q); format: in vivo, false cleavers (Galium spurium); settings: amount of applied herbicide 320 g/ha
How it was run: as §1

Cc1nn(C)c(=O)c(-c2c(-c3ccc(C(F)(F)F)cc3)sc3c(C)cccc23)c1O [4-126]
Herbicidal effect by soil treatment, H: barnyard grass (barnyard grass [1]): 0 (Herbicidal rate of 5% or less (almost no effect)) | Herbicidal effect, C: oval-leafed pondweed (oval-leafed pondweed): 0 (Herbicidal rate of 5% or less (almost no effect)) | Herbicidal effect, B: Japanese bulrush (Japanese bulrush): 0 (Herbicidal rate of 5% or less (almost no effect)) | Herbicidal effect by foliage application, G: green foxtail (green foxtail [2]): 0 (Herbicidal rate of 5% or less (almost no effect)) | Herbicidal effect by foliage application, L: windgrass (windgrass [3]): 0 (Herbicidal rate of 5% or less (almost no effect)) | Herbicidal effect by soil treatment, L: windgrass (windgrass [4]): 0 (Herbicidal rate of 5% or less (almost no effect)) | herbicidal effect on rice flat sedge (E) (rice flat sedge): 3 (Herbicidal rate of 40% or more and less than 70%) | Herbicidal effect, A: late watergrass (late watergrass): 3 (Herbicidal rate of 40% or more and less than 70%) | Herbicidal effect by foliage application, M: velvetleaf (velvetleaf [5]): 5 (Herbicidal rate of 90% or more (almost completely withered)) | Herbicidal effect by soil treatment, I: wild oat (wild oat [6]): 0 (Herbicidal rate of 5% or less (almost no effect)) | Herbicidal effect by foliage application, K: Italian ryegrass (Italian ryegrass [7]): 4 (Herbicidal rate of 70% or more and less than 90%) | Herbicidal effect by foliage application, H: barnyard grass (barnyard grass [8]): 0 (Herbicidal rate of 5% or less (almost no effect)) | Herbicidal effect by soil treatment, F: southern crabgrass (southern crabgrass [9]): 0 (Herbicidal rate of 5% or less (almost no effect)) | Herbicidal effect by foliage application, J: blackgrass (blackgrass [10]): 3 (Herbicidal rate of 40% or more and less than 70%) | Herbicidal effect by foliage application, F: southern crabgrass (southern crabgrass [11]): 0 (Herbicidal rate of 5% or less (almost no effect)) | Herbicidal effect by soil treatment, O: lambsquarters (lambsquarters [12]): 3 (Herbicidal rate of 40% or more and less than 70%) | Herbicidal effect by soil treatment, M: velvetleaf (velvetleaf [13]): 0 (Herbicidal rate of 5% or less (almost no effect)) | Herbicidal effect by foliage application, I: wild oat (wild oat [14]): 0 (Herbicidal rate of 5% or less (almost no effect)) | Herbicidal effect by soil treatment, G: green foxtail (green foxtail [15]): 0 (Herbicidal rate of 5% or less (almost no effect)) | Herbicidal effect by foliage application, N: redroot pigweed (redroot pigweed [16]): 5 (Herbicidal rate of 90% or more (almost completely withered)) | Herbicidal effect by soil treatment, K: Italian ryegrass (Italian ryegrass [17]): 1 (Herbicidal rate of 5% or more and less than 20%) | Herbicidal effect by foliage application, P: chickweed (chickweed [18]): 5 (Herbicidal rate of 90% or more (almost completely withered)) | Herbicidal effect by soil treatment, N: redroot pigweed (redroot pigweed [19]): 5 (Herbicidal rate of 90% or more (almost completely withered)) | herbicidal effect on barnyard grass (H) (barnyard grass [20]): 3 (Herbicidal rate of 40% or more and less than 70%) | Herbicidal effect by foliage application, R: persian speedwell (persian speedwell): 5 (Herbicidal rate of 90% or more (almost completely withered)) | Herbicidal effect by soil treatment, J: blackgrass (blackgrass [21]): 0 (Herbicidal rate of 5% or less (almost no effect)) | Herbicidal effect by soil treatment, P: chickweed (chickweed [22]): 4 (Herbicidal rate of 70% or more and less than 90%) | herbicidal effect on Chinese sprangletop (D) (Chinese sprangletop): 0 (Herbicidal rate of 5% or less (almost no effect)) | Herbicidal effect by foliage application, O: lambsquarters (lambsquarters [23]): 3 (Herbicidal rate of 40% or more and less than 70%) | Herbicidal effect by soil treatment, Q: false cleavers (false cleavers): 0 (Herbicidal rate of 5% or less (almost no effect))
